One block for each compound: values may come before it.
Assays:
[1] = Metabolite quantitation in mouse plasma (QQQ-LC/MS); format: in vivo; settings: 1 week ketogenic diet, 24 h fast, or ketone ester drink 3 g/kg
Experimental: (§1) Preparation of plasma samples for LC-MS analysis. Plasma was collected from mice via a submandibular bleed into lithium heparin tubes (BD, 365985) and immediately transferred onto ice. The blood was centrifuged at 4° C. at 5000 rpm for 5 min and the top layer of plasma was aliquoted and frozen at −80 °C. To extract polar metabolites from plasma for LC-MS analysis, 150 μl of a 2:1 mixture of acetonitrile/methanol was added to 50 μl of plasma. The mixture was centrifuged at 4° C. for 10 min at 15,000 rpm and the supernatant was transferred to a LC-MS vial.
(§2) Targeted metabolomics. Targeted measurements were performed using an Agilent 6470 triple quadrupole LC-MS instrument. MS analysis was performed using AJS in negative mode. The AJS source parameters were set as follows: the dry gas temperature was set at 250° C. with a gas flow of 12 l/min and the nebulizer pressure at 25 psi; the sheath gas temperature was set to 300° C. with the sheath gas flow set at 12 l/min; and the capillary voltage was set to 3,500 V. Separation of polar metabolites was performed as described above in the ‘Untargeted measurements of metabolites by LC-MS’ section. Multiple reaction monitoring was performed for the indicated metabolites with the listed dwell times, fragmentor voltage, collision energies, cell accelerator voltages and polarities. Quantification of the endogenous metabolite concentrations were performed by generating a standard curve with known concentrations of each metabolite. Metabolite standards were analyzed alongside the plasma samples using the same targeted triple quadrupole LC/MS method. A calibration standard curve generated from the metabolite standard concentrations and total peak areas were used to calculate the concentrations of each endogenous metabolite. The dilution of the plasma during the sample preparation was also taken into account for the quantification.

CNDP2 = target: T1, CNDP2 (Mus musculus, UniProt Q9D1A2); format: in vivo; settings: ketone ester drink or one week of ketogenic diet
T1 sequence (Q9D1A2 1-475): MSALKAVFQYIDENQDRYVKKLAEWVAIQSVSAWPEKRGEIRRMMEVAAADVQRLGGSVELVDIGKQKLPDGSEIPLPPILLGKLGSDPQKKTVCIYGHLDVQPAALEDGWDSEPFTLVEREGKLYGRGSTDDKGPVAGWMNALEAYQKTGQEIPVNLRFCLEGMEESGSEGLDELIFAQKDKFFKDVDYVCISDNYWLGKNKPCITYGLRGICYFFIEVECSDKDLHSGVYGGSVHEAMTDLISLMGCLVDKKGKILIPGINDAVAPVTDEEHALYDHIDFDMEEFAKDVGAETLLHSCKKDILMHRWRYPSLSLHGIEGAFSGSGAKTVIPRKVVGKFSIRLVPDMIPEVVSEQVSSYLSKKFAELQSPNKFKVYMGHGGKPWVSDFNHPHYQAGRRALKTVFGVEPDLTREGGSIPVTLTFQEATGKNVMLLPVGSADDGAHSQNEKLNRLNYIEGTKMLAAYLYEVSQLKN
Experimental: as §1
(§3) Targeted metabolomics. Targeted measurements were performed using an Agilent 6470 triple quadrupole LC-MS instrument. MS analysis was performed using AJS in negative mode. […] Quantification of the endogenous metabolite concentrations were performed by generating a standard curve with known concentrations of each metabolite. Metabolite standards were analyzed alongside the plasma samples using the same targeted triple quadrupole LC/MS method. […] The dilution of the plasma during the sample preparation was also taken into account for the quantification. […]

[2] = Human ketone ester supplementation study, plasma metabolites; format: in vivo; settings: 0.3 g/kg ketone ester, 60 min
Experimental: as §2
Human ketone ester supplementation study. Following screening, eligible subjects participated in a randomized, counter-balanced, double-blind, placebo-controlled crossover trial comparing BHB supplementation versus placebo, separated by a minimum of 2 days (ClinicalTrials.gov ID NCT04194450). Pre-menopausal women were tested in the follicular phase (days 3-9). Participants were asked to refrain from structured exercise and alcohol, limit physical activity, and follow a standardized diet (~50% carbohydrate, ~30% fat, ~20% protein) on the day before each trial. After refraining from medication use for 24 hours, participants reported to the Exercise, Metabolism and Inflammation Laboratory at the University of British Columbia-Okanagan in an overnight fasted state. Anthropometric measurements were obtained prior to insertion of an indwelling intravenous catheter into the antecubital vein for repeated blood sampling. Blood was collected into EDTA tubes (BD, 367863) and immediately centrifuged at 2000 rpm for 15 min and the top layer of plasma was aliquoted and frozen at −80 °C. After baseline (0) blood sample collection, the oral BHB supplement or placebo was consumed in liquid form (~30-65 mL). The BHB supplement (H.V.M.N®, USA) in the form of the ketone monoester (R)-3-hydroxybutyl (R)-3-hydroxybutyrate (AG®, TDeltaS, Oxford, UK) contained 0.4 g mL-1 BHB, natural flavoring, and <2% stevia leaf extract. The taste-matched placebo drink contained the same natural flavoring as the ketone supplement, stevia leaf extract, 5 mL of Bittrex stock (0.005 g of denatonium benzoate powder in 40 ml of water) and 1.5 mL of arrowroot stock (2 g of arrowroot powder in 50 ml of water) to match the bitter flavor and viscosity of the ketone monoester. Supplements were dispensed into opaque 80 ml bottles with volume calculated for 0.3 g BHB/kg body weight and labelled either A or B by a third-party researcher. Blinding was maintained until completion of data collection and analyses.

[3] = Keto-Med study, plasma metabolites; format: in vivo; settings: human; 4 weeks WFKD vs baseline
Experimental: as §2
Keto-Med study. Keto-Med was a single-site, randomized, crossover, interventional trial comparing 2 metabolically distinct diets (well-formulated ketogenic diet, WFKD; and Mediterranean-plus diet, Med-Plus) among individuals with prediabetes and T2DM. Forty participants aged ≥18 years with prediabetes or T2DM followed the WFKD and the Med-Plus for 12 weeks each, in random order. Participants were randomly assigned into 1 of 2 different diet sequences: WFKD for 12 weeks (phase 1) and then the Med-Plus for 12 weeks (phase 2), or the opposite order. Ad libitum intake was advised, and participants were guided to follow 2 sets of dietary guidelines that shared 3 important similarities (incorporating nonstarchy vegetables and avoiding added sugars and refined grains) and 3 important differences (incorporating compared with avoiding legumes, fruits, and whole, intact grains). During the WFKD phase, participants were counseled to sustain nutritional ketosis by limiting carbohydrates to 20-50 g/day and keeping proteins to ~1.5 g/kg ideal body weight/day, with the remaining kcals coming from fats. Participants were also instructed to consume >3 servings/day of nonstarchy vegetables and maintain adequate mineral and fluid intake for the ketogenic state (sodium, 3-5 g/day; potassium, 3-4 g/day). […]

HMGCL [4] = settings: fasting (24 h) or ketogenic diet (2 days); Goldberg et al.; cited from earlier work
HMGCL [5] = assay: Plasma metabolites in Alb-Hmgcl (-/-) mice; format: in vivo, mouse; settings: fasting or ketogenic diet
Experimental: as §1, §3

[6] = test system: mouse tissue lysate proteins (brain, heart, quadriceps, liver); assay: X-Phe photoprobe crosslinking in mouse tissue lysates, in-gel fluorescence; format: binding; settings: 100 μM, UV crosslinking
Experimental: In vitro crosslinking studies of X-Phe photoprobe. Tissues were collected from wild type C57BL/6J and homogenized using a bead blaster in PBS. The protein homogenate was filtered through a 40 μm strainer to remove any un-homogenized tissue and the lysate diluted to 2 mg/ml. Tissue lysate was incubated with 100 μM of the photoprobe and incubated on ice for 10 minutes protected from light. Reactions were then put under UV for 1 min on a UV Stratalinker. A TAMRA click reaction was performed by adding the following reagents to the indicated final concentrations: […], 1 mM CuSO4, 1 mM TCEP (freshly prepared), 25 μM TAMRA-N3. Reactions were allowed to proceed for 1 hour at room temp, protected from light. Loading buffer was added to the reactions, boiled for 10 minutes and run down a protein gel. The gel was imaged prior to staining with a coomassie dye.

plasma BHB levels [1]: elevated by each of these conditions
plasma BHB in CNDP2-KO vs WT mice (CNDP2): unchanged
plasma BHB after ketone ester drink [2]: dramatically elevated
elevation of plasma BHB on WFKD [3]: 5 fold
SMILES: CC(O)CC(=O)O (stereo not drawn) [BHB, beta-hydroxybutyrate, reference compound]
circulating BHB levels in Alb-Hmgcl (-/-) mice (HMGCL [4]): reductions in circulating BHB levels

plasma level in Alb-Hmgcl (-/-) mice (HMGCL [5]): reduced in Alb-Hmgcl (−/−) mice
plasma keto amino acids in CNDP2-KO vs wild type mice (CNDP2): unaltered
SMILES: C[C@@H](O)CC(=O)N1CCC[C@H]1C(=O)O [Keto-Pro]

SMILES: C#CCCC(=O)N[C@@H](Cc1ccc(N=[N+]=[N-])cc1)C(=O)O [X-Phe photoprobe]
labelling of tissue proteins by photoprobe [6]: directly interacts with protein targets in a tissue-specific manner

Source: US20260325473A1, “N-Beta-Hydroxybutyryl-Amino Acids and Related Compositions and Methods” (The Board of Trustees of the Leland Stanford Junior …, priority 2023, published 2026)
